Assay results from patent US20080293969A1, “18F-Labeled Daa Analogues and Method of Labeling These Analogues as Positron Emission Tomography (Pet) Tracers For Imaging Peripheral Benzodiazepine Receptors” (GE Healthcare Limited, priority 2005, published 2008).

Key:
PBR = PBR (Homo sapiens, UniProt P30536); details: reported, Drug Dev. Research, 2001, vol. 52, 475-484; cited from earlier work
Biodistribution in rats = format: in vivo, male Sprague-Dawley rats; details: 10 MBq/kg tail vein, 15 min post-injection
Method: SAN1 at 10 MBq/kg was injected in the tail vein of male Sprague-Dawley rats. Rats were sacrificed 15 min post-injection and blood, cortex, olfactory bulb, adrenal and cerebellum were dissected, weighed and radioactivity in the organs was measured. Uptake in organs was expressed as Standardized Uptake Value, SUV. The scope of this experiment was to assess blood brain penetration of the radiolabeled compound as well as its distribution to organs known to express PBR, e.g. adrenal medulla. […] Additionally, we observed a large uptake of SAN1 in adrenal which is the peripheral organ with the highest density of PBRs. Biodistribution data from 4 rats was summarized and is shown in the diagram below, error bars represent the SEM.

[1] = biological target: T1, peripheral benzodiazepine receptors (PBR) (Sus scrofa, UniProt Q6UN27); test: Frozen section autoradiography; format: binding, pig
T1 construct: from tissue; host or cells: pig adrenal cryosections (rat heart and rat brain sections were run in the same assay)
T1 sequence (Q6UN27 1-169): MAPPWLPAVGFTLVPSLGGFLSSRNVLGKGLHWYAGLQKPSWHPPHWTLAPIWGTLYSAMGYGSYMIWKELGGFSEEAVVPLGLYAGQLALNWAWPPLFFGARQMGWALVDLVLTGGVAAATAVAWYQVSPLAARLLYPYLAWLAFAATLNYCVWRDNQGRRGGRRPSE
Method: (§1) Frozen Section Autoradiography.
(§2) Cryosections of pig adrenal, rat heart and rat brain were incubated with [^18F] labeled N-(2,5-dimethoxybenzyl)-3-fluoro-N-(5-fluoro-2-phenoxy-phenyl)propanamide (SAN1) for 40 min at R.T. in 50 mM Tris-HCl, pH 7.4, in the presence or absence of 1 μM PK11195 (selective PBR ligand). Thereafter, sections were washed in buffer 3×1 min, dried in a heated oven (37° C.) and exposed to phosphor imaging plates for 240 min. Assessment of the selectivity of the radioligand for PBRs was assessed by comparing the regional distribution of radioactivity with known distribution of PBRs in tissue. Another parameter investigated was the blocking effect in sections which were co-incubated with an excess of PK11195.

[2] = test system: peripheral benzodiazepine receptors (PBR); test: Frozen section autoradiography; format: binding, pig; details: frozen section autoradiography
Method: as §1, §2

PBR, sequence (P30536 whole entry, species assumed): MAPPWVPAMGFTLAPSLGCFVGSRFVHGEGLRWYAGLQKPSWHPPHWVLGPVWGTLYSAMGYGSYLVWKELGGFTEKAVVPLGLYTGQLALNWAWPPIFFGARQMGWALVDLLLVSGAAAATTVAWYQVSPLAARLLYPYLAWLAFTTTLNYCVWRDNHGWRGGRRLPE

| SMILES | affinity and selectivity for PBR (PBR) | brain to blood ratio (Biodistribution in rats; all regions analyzed (cortex, olfactory bulb, cerebellum), particularly olfactory bulb) | uptake in adrenal (Biodistribution in rats; uptake expressed as SUV) | blocking of adrenal medulla uptake by an excess of PK11195 ([1]; co-incubated with 1 μM PK11195) | uptake in adrenal medulla ([1]; cryosections of pig adrenal, incubated 40 min at R.T., 50 mM Tris-HCl pH 7.4) | binding and specificity for PBR-rich tissues [2] |
| --- | --- | --- | --- | --- | --- | --- |
| CC(=O)N(Cc1ccccc1OC(C)C)c1ccc(Cl)cc1Oc1ccccc1 [DAA1097, N-(4-chloro-2-phenoxyphenyl)-N-(2-isopropoxybenzyl)-acetamide] | high affinity selective ligands |  |  |  |  |  |
| COc1ccc(OC)c(CN(C(C)=O)c2cc(F)ccc2Oc2ccccc2)c1 [DAA1106, N-(2,5-dimethoxybenzyl)-N-(5-fluoro-2-phenoxyphenyl)acetamide] | high affinity selective ligands |  |  |  |  |  |
| COc1ccc(OC)c(CN(C(=O)CC[18F])c2cc(F)ccc2Oc2ccccc2)c1 [SAN1, [^18F] labeled N-(2,5-dimethoxybenzyl)-3-fluoro-N-(5-fluoro-2-phenoxy-phenyl)propanamide] |  | above 1 | large uptake | completely blocked | high uptake | good binding and specificity |
